# Reference: patent US20260216107A1, “INTERLEUKIN-6 (IL-6)/SIGNAL TRANSDUCER AND ACTIVATOR OF TRANSCRIPTION 3 (STAT3) PATHWAY INHIBITORS FOR USE IN THE TREATMENT OF GRANULOMATOUS DISEASES” (UCL BUSINESS LTD, priority 2023, published 2026)
# “Also recorded” adds a separate entry of the source.
# Key:
# THP1 monocytes = assay: PR3-stimulated giant cell formation in THP1 monocytes matured to macrophages; format: cell-based; conditions: PMA 24 hours, PR3 10 mcg/ml 72 hours, with or without Stattic; FIG. 19
# Method: An in vitro model of granulomatous disease was created using THP1 monocytes. The THP1 monocytes were matured to macrophages by the addition of PMA for 24 hours and then stimulated with PR3 at 10 mcg/ml for 72 hours in the presence or absence of Stattic, a STAT3 inhibitor. MGC formation was assessed as before by calculating the fusion index.
# IL-6 = IL-6 levels in zebrafish model of granulomatous disease; format: in vivo; conditions: PR3 zebrafish model, niclosamide via fish tank water
# Source text: An in vivo model of granulomatous disease in zebrafish was developed by administering PR3 to the fish.
# macrophage aggregation = assay: PR3-induced macrophage aggregation / MGC formation in zebrafish embryos, niclosamide added to fish water; format: in vivo; conditions: for Median aggregate volume: PR3-injected zebrafish, PR3 alone 106969 (41031-465184)
# Method: The injection of intact or HI PR3 into the zebrafish was repeated in the presence or absence of the IL-6/STAT3 inhibitor niclosamide, which was added to the fish water at different concentrations (0.01-0.3 μmol/l) (FIG. 11B, C). […] Median aggregate volume PR3 vs PR3 and niclosamide 0.3, 0.15. 0.05. 0.01 μmol/ml respectively 106969 (41031-465184), 42730 (25638-324957), 44501 (26861-90354), 63043 (27395-205060), 117473 (35128-245781) (p<0.05 PR3 vs 0.3 and 0.05, p<0.001 PR3 vs 0.15 μmol/l; one way ANOVA).
# In Vivo Effect of PR3 on MGC Formation and the Ability of Niclosamide to Reduce MGC Formation In order to understand granuloma formation in vivo, a zebrafish embryo model was developed. Transgenic macrophage reporter zebrafish {Tg (MPEg: cherry)} embryos at 24 hpf, were injected into the yolk sac with human PR3 or Albumin at 1 or 5 […], either untreated or following heat inactivation. Embryos were imaged at 120 hpf with lightsheet microscopy showing volumes of fused macrophages according to the colour scale (see FIG. 8A-D). […] Median (IQR) aggregate volumes were HI albumin 5 pg/ml 22713 μm^3 (19918-31486) and HI PR3 5 pg/ml 31571 μm^3 (23137-49647) (p<0.001, one way ANOVA). In subsequent experiments, the injection of intact or HI PR3 was repeated in the presence or absence of the IL-6-STAT3 inhibitor niclosamide, added to the fish water at different concentrations (0.01-0.3 μmol/l) (see FIG. 8F-G). […] Median aggregate volume PR3 vs PR3 and niclosamide 0.3, 0.15. 0.05. 0.01 μmol/ml respectively 106969 (41031-465184), 42730 (25638-324957), 44501 (26861-90354), 63043 (27395-205060), 117473 (35128-245781) (p<0.05 PR3 vs 0.3 and 0.05, p<0.001 PR3 vs 0.15 μmol/l; one way ANOVA).
# In Vivo Danio rerio Model All animal experimental protocols were approved by University College London's Animal Welfare and Ethical Review Body (AWERB) and licensed by the UK Home Office. All experiments were performed in accordance with relevant guidelines and regulations as described in UK Home Office Project License (PPL 70/8365) awarded to Dr Paul Frankel. The Transgeneic Tg (mpeg: GFP) line was kindly provided by Professor Maggie Dallman (Imperial College London, UK). Zebrafish were maintained in mixed-sex populations at 28° C. with a 14 h: 10 h light: dark cycle from 9 am-[…] and within internationally agreed environmental parameters regarding water quality and composition. Following dechorionation and anaesthesia with tricaine (0.2 mg/ml), embryos were microinjected into the yolk sac with 5 pg/mL of PR3, heat inactivated PR3, or albumin and incubated in 10 cm Petri dishes at 28.5° C. After 5 days, living embryos were anaesthetised with tricaine (0.2 mg/ml) and embedded in 2% agarose for 3-dimensional confocal microscopy using a Ziess camera at ×200 magnification to determine macrophage fusion. Z-stacks were analysed using Imaris software version 9.2. Images were 3D rendered and aggregate volumes measured by automated thresholds.
# GPA patients' monocytes = assay: PR3-stimulated MGC formation (fusion index) in GPA patients' monocytes; format: cell-based, human; conditions: cultured monocytes; Tocilizumab 10 μg/mL
molecule,measurement,setting,value
O=[N+]([O-])c1ccc2c(c1)S(=O)(=O)C=C2 [Stattic],giant cell formation index,THP1 monocytes,significant decrease; also recorded: lower giant cell formation index
"O=C(Nc1ccc([N+](=O)[O-])cc1Cl)c1cc(Cl)ccc1O [niclosamide, Niclosamide]",IL-6 levels,IL-6,reduce IL-6 levels
same,aggregate volume and number,"macrophage aggregation; FIG. 8F, G, 0.3, 0.15 and 0.05 μmol/ml niclosamide compared to PR3 alone",reduction in aggregate volume and number
same,Median aggregate volume,macrophage aggregation; niclosamide 0.01 μmol/l in fish water,117473 (35128-245781) μm^3
same,Median aggregate volume,"macrophage aggregation; niclosamide 0.05 μmol/l in fish water, p<0.05",63043 (27395-205060) μm^3
same,Median aggregate volume,"macrophage aggregation; niclosamide 0.15 μmol/l in fish water, p<0.001",44501 (26861-90354) μm^3
same,Median aggregate volume,"macrophage aggregation; niclosamide 0.3 μmol/l in fish water, p<0.05",42730 (25638-324957) μm^3
same,granuloma formation,"macrophage aggregation; PR3 zebrafish model, niclosamide via fish tank water",significantly inhibit granuloma formation
same,macrophage aggregation,macrophage aggregation; after injection of enzymatically active or inactive PR3 into the yolk sac,significantly attenuated
same,MGC formation,"macrophage aggregation; zebrafish injected with intact or HI PR3, niclosamide 0.01-0.3 μmol/l in fish water, vs PR3 alone",significantly less MGC formation
same,concentration at which the reduction of MGC formation was maximal,"macrophage aggregation; zebrafish injected with intact or HI PR3, niclosamide in fish water",0.15 µmol/mL
"Tocilizumab: humanised IgG1 monoclonal antibody against the human interleukin-6 (IL-6) receptor (RoActerma, Roche, UK)",granuloma formation,GPA patients' monocytes,reduced granuloma formation
